# Test results reported in patent publication US11304944B2, “MetAP2 inhibitors and methods of treating obesity” (SynDevRx, Inc., priority 2013, dated 2022).
# Key:
# DIO C57Bl/6 mice = assay: In vivo testing DIO mice schedule-dose response: weight, food intake, ipGTT, HOMA-ir data
# Experimental: Animals were dosed according to the schedule in Table 17 below.
# Compound dosing occurred between 9 and 10 am on the day of dosing. Groups 6 and 7 received a total of 17 doses. The q4d groups (1, 2, 3, 4, 8, 9) received a total of 9 doses. The q8d group (5) received a total of 5 drug doses. Body weight and food intake were measured every other day. Blood glucose was measured on Day −7, Day 0, Day 7, Day 14, Day 21 and Day 28 at 9:00 am in fed state (BG measured before dose on dosing days). BG was measured by glucometer. An intraperitoneal glucose tolerance test (ipGTT, 6 h fasting) was performed.
# The study was terminated on day 34. Liver and epididymal white adipose tissues (eWAT) were harvested, weighed and stored at −80° C. Sera was collected to determine: AST, ALT, ALP, CK, BUN, creatinine, calcium, potassium, sodium, chloride, total protein, albumin, total bilirubin, glucose, triglyceride and cholesterol. Insulin samples were measured using a commercial kit.
# DIO Levin rats = assay: In vivo testing DIO Levin rats: weight changes, food consumption, insulin, leptin levels; details: for Final BW: after 68 days, 60% fat diet
# Experimental: CKD-732 as referred to herein is the hemitartrate salt of the following structure:
# Test articles were administered subcutaneously on an every 4 day (q4d) schedule in a diet-induced obesity (DIO) Levin-DS rat model. […] A dietary intervention (Standard Chow, Labdiet 5001; 3.4 kcal/g) was included to compare to the drug interventions. Upon arrival at three weeks of age, the male rats received ad libitum pellets of Harlan Diet TD.06414, 60% of calories from fat, 21% of calories from carbohydrate; 5.1 kcal/g. Prior to dosing the rats were randomized into groups of three animals with an average body weight of 595 gm. […] Compound 1 in the form of the hemitartrate and CKD-732 in the form of the hemitartrate were dissolved in ethanol prior to dilution with vehicle. All doses were administered at a volume of 5.0 ml/kg. […] On day 1, first dose, the rats were 14 weeks of age. Also on day 1, Group 2 was switched from the high fat diet to a standard chow diet; the remaining groups were maintained on a high fat diet for the duration of the study.
# Animals were weighed every other day. Food consumption was measured weekly. On an approximately weekly basis throughout the study, blood samples were taken for assessment of serum chemistries including glucose and insulin. On Day 48 all rats underwent a 4 hour fasted Oral Glucose Tolerance Test (OGTT). Animals were dosed orally (per os, PO) at 8 mL/kg 25% glucose (2 g/kg). On day 68, gross pathology was performed to determine body composition.
# Sprague Dawley male rats = assay: Tolerability of high IV doses on q7d schedule in Sprague Dawley rats; type: in vivo; details: 100 mg/kg or 200 mg/kg IV on days 1, 8, 15, 22 and 29
# Experimental: Sprague Dawley male rats (N=3) nine to ten weeks old with an average weight of 300 g were ad libitum fed standard rodent diet (PharmaServ lab diet 5001). […] The rats were weighed periodically and bled on day 10, day 17, day 24. For in-life blood collections, the rats were anesthetized with an inhalation mixture of 4% Isoflurane and 1.5% oxygen, then blood was collected via retro-orbital plexus puncture at a volume of at least 1 mL. […] Within the limits of comparison to normal ranges and pre-dose data, clinical findings for albumin, albumin/globulin ratio, alkaline, phosphatase, ALT (SGPT), AST (SGOT), bicarbonate, direct bilirubin, indirect bilirubin, total bilirubin, BUN, BUN/creatinine ratio, calcium, chloride, cholesterol, CK, creatinine, globulin, glucose, phosphorus, potassium, sodium, sodium/potassium ratio, total protein were unremarkable.
# [1] = 0.6 mg/kd (so in the source) q4d sc
substance,measurement,setting,value
poly[HPMA-co-MA-GFLG-N-(trans-4-aminocyclohexyl)carbamoylfumagillol] [Compound 16],"Glucose, ipGTT 0 min",DIO C57Bl/6 mice; 2 mg/kg q4d,182.8 mg/dL
same,"Glucose, ipGTT 15 min",DIO C57Bl/6 mice; 2 mg/kg q4d,488.6 mg/dL
same,"Insulin, ipGTT 0 min",DIO C57Bl/6 mice; 2 mg/kg q4d,104.6 uU/ml
same,"Insulin, ipGTT 15 min",DIO C57Bl/6 mice; 2 mg/kg q4d,133.4 uU/ml
same,"Glucose, ipGTT 0 min",DIO C57Bl/6 mice; 6 mg/kg q4d,179.8 mg/dL
same,"Glucose, ipGTT 15 min",DIO C57Bl/6 mice; 6 mg/kg q4d,557.3 mg/dL
same,"Insulin, ipGTT 0 min",DIO C57Bl/6 mice; 6 mg/kg q4d,53.2 uU/ml
same,"Insulin, ipGTT 15 min",DIO C57Bl/6 mice; 6 mg/kg q4d,64.3 uU/ml
same,"Glucose, ipGTT 0 min",DIO C57Bl/6 mice; 12 mg/kg Q8D,204.0 mg/dL
same,"Glucose, ipGTT 15 min",DIO C57Bl/6 mice; 12 mg/kg Q8D,553.1 mg/dL
same,"Insulin, ipGTT 0 min",DIO C57Bl/6 mice; 12 mg/kg Q8D,75.9 uU/ml
same,"Insulin, ipGTT 15 min",DIO C57Bl/6 mice; 12 mg/kg Q8D,96.0 uU/ml
same,fasting insulin,"DIO C57Bl/6 mice; all Compound 16 groups, FIG. 22",fasting insulin was also reduced
same,Avg. Insulin Day 7,DIO Levin rats; 0.3 mg/kg q4d sc,2.27 ng/mL
same,Avg. Insulin Day 15,DIO Levin rats; 0.3 mg/kg q4d sc,1.65 ng/mL
same,Avg. Insulin Day 23,DIO Levin rats; 0.3 mg/kg q4d sc,1.66 ng/mL
same,Avg. Insulin Day 48,DIO Levin rats; 0.3 mg/kg q4d sc,1.70 ng/mL
same,Avg. Insulin Pre-dosing,DIO Levin rats; 0.3 mg/kg q4d sc,1.76 ng/mL
same,Group Average Food Consumption Day 1-8,DIO Levin rats; 0.3 mg/kg q4d sc,125.2 g
same,Group Average Food Consumption Day 9-15,DIO Levin rats; 0.3 mg/kg q4d sc,125.9 g
same,Group Average Food Consumption Day 16-23,DIO Levin rats; 0.3 mg/kg q4d sc,128.2 g
same,Group Average Food Consumption Day 24-30,DIO Levin rats; 0.3 mg/kg q4d sc,129.3 g
same,Group Average Food Consumption Day 31-36,DIO Levin rats; 0.3 mg/kg q4d sc,122.4 g
same,Group Average Food Consumption Day 37-43,DIO Levin rats; 0.3 mg/kg q4d sc,131.9 g
same,Group Average Food Consumption Day 44-50,DIO Levin rats; 0.3 mg/kg q4d sc,135.6 g
same,Group Average Food Consumption Day 51-57,DIO Levin rats; 0.3 mg/kg q4d sc,134.5 g
same,Group Average Food Consumption Day 58-63,DIO Levin rats; 0.3 mg/kg q4d sc,134.2 g
same,Group Average Food Consumption Day 63-68,DIO Levin rats; 0.3 mg/kg q4d sc,57.6 g
same,Leptin Levels Day 29,DIO Levin rats; 0.3 mg/kg q4d sc,3.30
same,Leptin Levels Pre-dose,DIO Levin rats; 0.3 mg/kg q4d sc,2.53
same,"Leptin Levels, Day 29, % Change from Baseline",DIO Levin rats; 0.3 mg/kg q4d sc,30.3%
same,Final BW,DIO Levin rats; 0.3 mg/kg q4d sc,727.3 g
same,Avg. Insulin Day 7,DIO Levin rats; [1],2.09 ng/mL
same,Avg. Insulin Day 15,DIO Levin rats; [1],1.38 ng/mL
same,Avg. Insulin Day 23,DIO Levin rats; [1],1.72 ng/mL
same,Avg. Insulin Day 48,DIO Levin rats; [1],1.91 ng/mL
same,Avg. Insulin Pre-dosing,DIO Levin rats; [1],2.95 ng/mL
same,Group Average Food Consumption Day 1-8,DIO Levin rats; [1],121.2 g
same,Group Average Food Consumption Day 9-15,DIO Levin rats; [1],101.0 g
same,Group Average Food Consumption Day 16-23,DIO Levin rats; [1],109.7 g
same,Group Average Food Consumption Day 24-30,DIO Levin rats; [1],122.1 g
same,Group Average Food Consumption Day 31-36,DIO Levin rats; [1],125.8 g
same,Group Average Food Consumption Day 37-43,DIO Levin rats; [1],116.6 g
same,Group Average Food Consumption Day 44-50,DIO Levin rats; [1],118.2 g
same,Group Average Food Consumption Day 51-57,DIO Levin rats; [1],123.1 g
same,Group Average Food Consumption Day 58-63,DIO Levin rats; [1],130.7 g
same,Group Average Food Consumption Day 63-68,DIO Levin rats; [1],45.9 g
same,Leptin Levels Day 29,DIO Levin rats; 1 mg/kg q4d sc,4.53
same,Leptin Levels Pre-dose,DIO Levin rats; 1 mg/kg q4d sc,4.67
same,"Leptin Levels, Day 29, % Change from Baseline",DIO Levin rats; 1 mg/kg q4d sc,−2.9%
same,Final BW,DIO Levin rats; 1.0 mg/kg q4d sc,668.6 g
same,lower body weight than rats on the standard chow diet,"DIO Levin rats; 3 mg/kg Q4D, end of the study",6.2%
same,lower body weight than the vehicle control,"DIO Levin rats; 3 mg/kg Q4D, end of the study",22.1%
same,Avg. Insulin Day 7,DIO Levin rats; 3 mg/kg q4d sc,0.66 ng/mL
same,Avg. Insulin Day 15,DIO Levin rats; 3 mg/kg q4d sc,0.54 ng/mL
same,Avg. Insulin Day 23,DIO Levin rats; 3 mg/kg q4d sc,1.26 ng/mL
same,Avg. Insulin Day 48,DIO Levin rats; 3 mg/kg q4d sc,1.08 ng/mL
same,Avg. Insulin Pre-dosing,DIO Levin rats; 3 mg/kg q4d sc,1.49 ng/mL
same,Group Average Food Consumption Day 1-8,DIO Levin rats; 3 mg/kg q4d sc,97.3 g
same,Group Average Food Consumption Day 9-15,DIO Levin rats; 3 mg/kg q4d sc,63.2 g
same,Group Average Food Consumption Day 16-23,DIO Levin rats; 3 mg/kg q4d sc,123.4 g
same,Group Average Food Consumption Day 24-30,DIO Levin rats; 3 mg/kg q4d sc,108.7 g
same,Group Average Food Consumption Day 31-36,DIO Levin rats; 3 mg/kg q4d sc,102.6 g
same,Group Average Food Consumption Day 37-43,DIO Levin rats; 3 mg/kg q4d sc,105.5 g
same,Group Average Food Consumption Day 44-50,DIO Levin rats; 3 mg/kg q4d sc,129.9 g
same,Group Average Food Consumption Day 51-57,DIO Levin rats; 3 mg/kg q4d sc,115.2 g
same,Group Average Food Consumption Day 58-63,DIO Levin rats; 3 mg/kg q4d sc,128.0 g
same,Group Average Food Consumption Day 63-68,DIO Levin rats; 3 mg/kg q4d sc,43.3 g
same,Leptin Levels Day 29,DIO Levin rats; 3 mg/kg q4d sc,1.36
same,Leptin Levels Pre-dose,DIO Levin rats; 3 mg/kg q4d sc,2.47
same,"Leptin Levels, Day 29, % Change from Baseline",DIO Levin rats; 3 mg/kg q4d sc,−45.0%
same,Final BW,DIO Levin rats; 3.0 mg/kg q4d sc,604.7 g
same,Avg. Insulin Day 7,"DIO Levin rats; 6 mg, q7d sc",1.96 ng/mL
same,Avg. Insulin Day 15,"DIO Levin rats; 6 mg, q7d sc",1.00 ng/mL
same,Avg. Insulin Day 23,"DIO Levin rats; 6 mg, q7d sc",1.11 ng/mL
same,Avg. Insulin Day 48,"DIO Levin rats; 6 mg, q7d sc",1.32 ng/mL
same,Avg. Insulin Pre-dosing,"DIO Levin rats; 6 mg, q7d sc",3.06 ng/mL
same,Group Average Food Consumption Day 1-8,"DIO Levin rats; 6 mg, q7d sc",105.2 g
same,Group Average Food Consumption Day 9-15,"DIO Levin rats; 6 mg, q7d sc",48.3 g
same,Group Average Food Consumption Day 16-23,"DIO Levin rats; 6 mg, q7d sc",43.9 g
same,Group Average Food Consumption Day 24-30,"DIO Levin rats; 6 mg, q7d sc",139.8 g
same,Group Average Food Consumption Day 31-36,"DIO Levin rats; 6 mg, q7d sc",117.4 g
same,Group Average Food Consumption Day 37-43,"DIO Levin rats; 6 mg, q7d sc",126.3 g
same,Group Average Food Consumption Day 44-50,"DIO Levin rats; 6 mg, q7d sc",81.2 g
same,Group Average Food Consumption Day 51-57,"DIO Levin rats; 6 mg, q7d sc",107.5 g
same,Group Average Food Consumption Day 58-63,"DIO Levin rats; 6 mg, q7d sc",107.7 g
same,Group Average Food Consumption Day 63-68,"DIO Levin rats; 6 mg, q7d sc",19.8 g
same,Leptin Levels Day 29,"DIO Levin rats; 6 mg, q7d sc",2.00
same,Leptin Levels Pre-dose,"DIO Levin rats; 6 mg, q7d sc",3.93
same,"Leptin Levels, Day 29, % Change from Baseline","DIO Levin rats; 6 mg, q7d sc",−49.2%
same,Final BW,DIO Levin rats; 6.0 mg/kg q7d sc,596.7 g
same,change in leptin levels from baseline versus dose,DIO Levin rats; FIG. 18,dose-dependent response
same,"weight loss versus fumagillol exposure, compared to Compound 1 or CKD-732","DIO Levin rats; day 68, FIG. 12",greater weight loss with significantly lower fumagillol exposure
same,"evidence of neurotoxicity (ataxis, disorientation, tremor or convulsion)",Sprague Dawley male rats,did not exhibit any evidence of neurotoxicity
